We go through six compounds from publication PMC10747913, “Preparation of ^18F-Labeled Tracers Targeting Fibroblast Activation Protein via Sulfur [^18F]Fluoride Exchange Reaction” (Pharmaceutics, 2023).

What is called IC50 is the concentration that inhibits the measured activity by half.

Molecules are shown by their SMILES.

For series [1], the target named is T1, human recombinant FAP (Homo sapiens, UniProt Q12884).
T1 construct: purchased BPS Bioscience 80210
T1 sequence (Q12884 1-760): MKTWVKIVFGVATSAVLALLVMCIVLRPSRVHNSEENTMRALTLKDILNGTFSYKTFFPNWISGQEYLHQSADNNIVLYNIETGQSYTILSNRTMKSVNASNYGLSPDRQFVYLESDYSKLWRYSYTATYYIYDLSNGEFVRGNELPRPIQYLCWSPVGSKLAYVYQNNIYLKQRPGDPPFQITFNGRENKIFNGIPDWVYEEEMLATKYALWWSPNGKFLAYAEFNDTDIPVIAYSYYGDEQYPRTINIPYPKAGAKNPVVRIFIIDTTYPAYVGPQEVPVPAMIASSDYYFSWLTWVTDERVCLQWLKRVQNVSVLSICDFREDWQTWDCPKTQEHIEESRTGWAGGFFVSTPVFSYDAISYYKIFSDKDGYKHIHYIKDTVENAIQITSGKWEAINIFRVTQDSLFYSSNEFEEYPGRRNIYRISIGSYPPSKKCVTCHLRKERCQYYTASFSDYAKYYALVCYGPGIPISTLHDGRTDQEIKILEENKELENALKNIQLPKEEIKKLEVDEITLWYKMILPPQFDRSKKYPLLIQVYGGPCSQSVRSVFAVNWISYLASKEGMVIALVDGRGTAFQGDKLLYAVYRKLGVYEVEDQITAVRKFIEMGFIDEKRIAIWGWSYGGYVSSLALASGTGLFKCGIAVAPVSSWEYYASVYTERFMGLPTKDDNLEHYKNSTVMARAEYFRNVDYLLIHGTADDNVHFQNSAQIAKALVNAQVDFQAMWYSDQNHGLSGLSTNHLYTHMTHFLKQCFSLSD
Briefly: Fluorogenic FAP enzyme inhibition assay (BPS Bioscience #80210, Ala-Pro-AMC substrate). In kind it is biochemical. The conditions noted are these: for Hill Coefficient: mean with 95% confidence interval in brackets. The procedure:
To determine the inhibitory capacity, a commercial fluorogenic FAP assay was used (BPS Bioscience, San Diego, CA, USA, #80210) according to the manufacturer’s instructions. […] On the day of testing, a 1:10 dilution in the supplied DPP assay buffer was performed for all compounds. […] The fluorogenic peptide substrate (Ala-Pro-AMC dipeptide) was added and the reaction started with the addition of the human recombinant FAP (25 ng/µL). Immediately, the plate was loaded into a multilabel plate reader (Biotek Cytation 5, Agilent, Bellevue, WA, USA) and each well was measured at an excitation wavelength window of 360 ± 20 nm and an emission wavelength window of 450 ± 20 nm. The fluorescence intensity was measured over 15 min in intervals of 15 s, resulting in 61 data points per curve. Controls included blanks (omission of substrate, enzyme and inhibitor), negative (omission of enzyme) and positive controls (omission of inhibitor). The recorded time courses of the type (RFU − RFU0) = f(t) were analyzed with linear regression of the experimental data over the entire measurement period. […] (2) rate=Bottom+(Top−Bottom)×[I]^nH/[I]^nH+IC50^nH
Spanning a range of compound concentrations (50 pM–1 µM), fluorescence intensity changes were followed over 15 min.

A short description of series [2]: Liver cytosol assay (RLC). In kind it is in vitro ADME, rat. The note with it: positive control, 40 µM, after 60 min. The procedure: (§1) Liver cytosol experiments with [^18F]12 were performed according to reported procedures.
(§2) Vanilin (40 µM final) was used as positive control for the activity of the liver cytosols and was separately incubated under the conditions described above (1% EtOH final). […] More than 80% of the vanilin had been degraded after 60 min in the presence of HLC, while around 60% of the vanilin had been degraded with RLC. There was no change in the degradation rate with and without 1% EtOH in the incubation mixture.

The nature of series [3]: Liver cytosol assay (HLC). The class given is in vitro ADME, human. The conditions noted are these: positive control, 40 µM, after 60 min. The procedure:
as §1, §2

The conditions of series [4]: human. The procedure: Microsome experiments with [^18F]12 in the presence of NADPH were performed according to the procedure recently described by us with slight modifications. […] The radiotracer dissolved in EtOH (4 µL; 5 MBq/µL) was diluted with PBS (496 µL, 0.8% EtOH). This radiotracer solution (100 µL, 0.32% EtOH and 16 MBq/mL or 1.6 µM final) was mixed with PBS (112.5 µL) and human liver microsomes (12.5 µL of 20 mg/mL stock; 1 mg/mL final; Gibco™ Cat. No. HMMCPL, Lot. No. PL050E-B) in a 1.5 mL Eppendorf tube and the mixture was warmed for 5 min at 37 °C. Subsequently, NADPH (25 µL of freshly prepared 20 mM solution in PBS, 2 mM final) was added and the mixture was incubated at 37 °C. As a control incubation, NADPH was omitted and replaced by PBS. After distinct time points (10, 20, 30 and 60 min), an aliquot (40 µL) was withdrawn and added to ice-cooled CH3CN (160 µL). The mixture was vortexed for 30 s, stored on ice for 4 min and centrifuged (5 min at 15,000 rpm). The resulting supernatant was used for radio-HPLC analysis using the Shimadzu system described in Section 2.2 with the following conditions. A C18 column Kinetex® from Phenomenex (5 µm, 100 Å, LC Column 250 × 4.6 mm) served as stationary phase. The eluent consisted of (A) 0.1% trifluoroacetic acid in H2O and (B) MeCN; flow rate 1 mL/min; elution profile A/B: t0 min 70/30–t10.0 min 70/30–t11.0 min 5/95–t16.0 min 5/95–t17.0 min 70/30–t22.0 min 70/30.
Testosterone (40 µM final) was used as a positive control for the activity of the HLM and was separately incubated under the conditions described above (0% EtOH final).

Series [5] in a line: Stability in PBS (pH 7.4). The conditions noted are these: PBS pH 7.4, 120 min. The class given is physicochemical. The procedure:
(§3) The radiochemical purity and identity of [^18F]12 and [^18F]13 was analyzed with radio-HPLC. […] Prior to a biological evaluation, preliminary stability studies of [^18F]12 and [^18F]13 were performed in human serum at 37 °C (Figure 3A,B). The stability studies were performed by taking an aliquot of the radiolabeled product solution and incubating the product mixture in the desired solvent or human serum at 37 °C for the given time points. In both cases, decomposition of [^18F]12 and [^18F]13 was evident from the first peak in the radioactive channel (tR: 0.6–1.0), most likely due to the release of [^18F]fluoride, which could be detected using UHPLC analysis from the first time point of 15 min and continued until 120 min. After 60 min, approximately 20% of [^18F]12 and 19% of [^18F]13 had been degraded; following a 120 min incubation, approximately 38% of both [^18F]12 and [^18F]13 had been degraded.

Series [6] in a line: Stability in EtOH. In kind it is physicochemical. The conditions noted are these: 120 min. The procedure: In addition, we performed a series of stability studies of compounds [^18F]12 and [^18F]13 in EtOH, phosphate-buffered saline (PBS, pH 7.4) and human serum (37 °C) to provide an indication of the rates of in vivo defluorination. […] These findings correlate with the unwanted accumulation of activity in the bones and joints obtained during PET imaging experiments in a healthy mice (Figure 5A,B).

The nature of series [7]: Serum stability assay at 37 °C (radio-UHPLC). The class given is in vitro ADME, human. The procedure:
Either [^18F]12 or [^18F]13 (20–40 MBq) in 40 µL EtOH aliquots was incubated with 360 µL human serum (Sigma Aldrich, Darmstadt, Germany) at 37 °C. After specific time intervals (5–120 min), 40 µL samples were taken from the serum incubation mixture, added to 80 µL “Supersol” solubilizing agent (see Supplementary Materials Table S6) and cooled over ice for 2 min. Thereafter, the cooled mixture was centrifuged at 4 °C (15,000 rpm) for 3 min and 80 µL of the supernatant solution was monitored with radio-UHPLC. A gradient of 5% to 45% acetonitrile in 7.5 min was used for enhanced separation.
as §3

For `N#C[C@@H]1CC(F)(F)CN1C(=O)CNC(=O)c1ccnc2ccc(OCCCN3CCN(C(=O)CN4CCN(CC(=O)O)CCN(CC(=O)O)CCN(CC(=O)O)CC4)CC3)cc12` [FAPI-04, reference compound], in series [1], the “Hill Coefficient” value is −1.51 (−2.51 to −0.95).

On to `N#C[C@@H]1CC(F)(F)CN1C(=O)CNC(=O)c1ccnc2ccc(OCCCN3CCN(C(=O)c4cccc(OS(=O)(=O)F)c4)CC3)cc12` [compound 13], for which, in series [1], the IC50 worked out at 4.17 nM and the “Hill Coefficient” value is recorded as −1.27 (−1.98 to −0.91).

Turning to `COc1cc(C=O)ccc1O` [vanilin, Vanilin, reference compound], the “fraction degraded with RLC” value in series [2] is listed as “around 60%”. The “fraction degraded in presence of HLC” value in series [3] is on record as “More than 80%”.

With `N#C[C@@H]1CC(F)(F)CN1C(=O)CNC(=O)c1ccnc2ccc(OCCCN3CCN(C(=O)c4ccc(OS(=O)(=O)F)cc4)CC3)cc12` [compound 12], in series [1], the half-maximal inhibitory concentration (IC50) was 9.63 nM and the “Hill Coefficient” value was −1.56 (−2.43 to −1.059).

`C[C@]12CC[C@H]3[C@@H](CCC4=CC(=O)CC[C@@]43C)[C@@H]1CC[C@@H]2O` [Testosterone, reference compound]: the “time after which metabolization was completed” value in series [4] was over 30 min.

For `N#C[C@@H]1CC(F)(F)CN1C(=O)CNC(=O)c1ccnc2ccc(OCCCN3CCN(C(=O)c4cccc(OS(=O)(=O)[18F])c4)CC3)cc12` [[^18F]13], in series [5], the “stability in PBS” value was “stable”. The “stability in EtOH” value in series [6] was “stable”. The “fraction degraded in human serum” value was “approximately 38%” in series [7] (120 min incubation) and about 19% in series [7] (after 60 min). For the same compound, the “stability in human serum” value in series [7] (after only 15 min) was “clear signs of instability”.
